Where “and” joins values, the source holds several entries; their conditions need not be identical. Equal entries are not always repeated. Inconclusive results and toxic doses are left out. Cut-off read from the data, not from the text of the source: active = T/C of 150% or more; inactive = T/C below 125%.
System: L1210 leukemia ip in BDF1 mice, survival T/C
Test: NCI In Vivo Anticancer Drug Screen. Data for tumor model L1210 Leukemia (intraperitoneal) in B6D2F1 (BDF1) mice
Conditions: endpoint: mean survival time, higher = longer survival
Method in brief: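 Tumor was transplanted into mice, which were then dosed with test compound or vehicle alone. Survival was recorded for each group, and the treated figure was expressed relative to the control figure.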

[1] = dose: 100.0 mg/kg/injection, schedule: Q01DX009 (ip), vehicle: Klucel (hydroxypropylcellulose) (HPC)
[2] = dose: 200.0 mg/kg/injection, schedule: Q01DX009 (ip), vehicle: Klucel (hydroxypropylcellulose) (HPC)
[3] = dose: 400.0 mg/kg/injection, schedule: Q01DX009 (ip), vehicle: Klucel (hydroxypropylcellulose) (HPC)
[4] = dose: 100.0 mg/kg/injection, schedule: Q04DX002 (ip), vehicle: Klucel (hydroxypropylcellulose) (HPC)
[5] = dose: 200.0 mg/kg/injection, schedule: Q04DX002 (ip), vehicle: Klucel (hydroxypropylcellulose) (HPC)
[6] = dose: 100.0 mg/kg/injection, schedule: Q01DX001 (ip), vehicle: saline
[7] = dose: 100.0 mg/kg/injection, schedule: Q04DX003 (ip), vehicle: saline
[8] = dose: 200.0 mg/kg/injection, schedule: Q01DX001 (ip), vehicle: saline
[9] = dose: 200.0 mg/kg/injection, schedule: Q04DX003 (ip), vehicle: saline
[10] = dose: 400.0 mg/kg/injection, schedule: Q01DX001 (ip), vehicle: saline
[11] = dose: 100.0 mg/kg/injection, schedule: Q01DX009 (ip), vehicle: saline with Tween-80
[12] = dose: 200.0 mg/kg/injection, schedule: Q01DX009 (ip), vehicle: saline with Tween-80
[13] = dose: 100.0 mg/kg/injection, schedule: Q04DX003 (ip), vehicle: saline with Tween-80
[14] = dose: 200.0 mg/kg/injection, schedule: Q04DX003 (ip), vehicle: saline with Tween-80
[15] = dose: 400.0 mg/kg/injection, schedule: Q04DX003 (ip), vehicle: saline with Tween-80
[16] = dose: 50.0 mg/kg/injection, schedule: Q01DX009 (ip), vehicle: saline with Tween-80
[17] = dose: 50.0 mg/kg/injection, schedule: Q01DX001 (ip), vehicle: Klucel (hydroxypropylcellulose) (HPC)
[18] = dose: 100.0 mg/kg/injection, schedule: Q01DX001 (ip), vehicle: Klucel (hydroxypropylcellulose) (HPC)
[19] = dose: 200.0 mg/kg/injection, schedule: Q01DX001 (ip), vehicle: Klucel (hydroxypropylcellulose) (HPC)

Measured: T/C

Cc1c2oc3c(C)c([N+](=O)[O-])cc(C(=O)NC4C(=O)NC(C(C)C)C(=O)N5CCCC5C(=O)N(C)CC(=O)N(C)C(C(C)C)C(=O)OC4C)c3nc-2c(C(=O)NC2C(=O)NC(C(C)C)C(=O)N3CCCC3C(=O)N(C)CC(=O)N(C)C(C(C)C)C(=O)OC2C)c(N)c1=O (centres undefined)
inactive: dose: 75.0 micrograms/kg/injection, schedule: Q01DX009 (ip), vehicle: saline + alcohol 110 % of control | dose: 100.0 micrograms/kg/injection, schedule: Q01DX009 (ip), vehicle: saline + alcohol 116 % of control | dose: 150.0 micrograms/kg/injection, schedule: Q01DX009 (ip), vehicle: saline + alcohol 111 % of control | dose: 300.0 micrograms/kg/injection, schedule: Q01DX009 (ip), vehicle: saline + alcohol 108 % of control | dose: 400.0 micrograms/kg/injection, schedule: Q01DX009 (ip), vehicle: saline + alcohol 96 % of control | dose: 400.0 micrograms/kg/injection, schedule: Q04DX003 (ip), vehicle: saline + alcohol 124 % of control | dose: 600.0 micrograms/kg/injection, schedule: Q04DX003 (ip), vehicle: saline + alcohol 119 % of control | dose: 800.0 micrograms/kg/injection, schedule: Q04DX003 (ip), vehicle: saline + alcohol 106 % of control | dose: 1200.0 micrograms/kg/injection, schedule: Q04DX003 (ip), vehicle: saline + alcohol 111 % of control

COc1ccc(OC)c(NC(=O)Nc2cccc(C(C)=O)c2)c1
inactive: [1] 96 % of control | [2] 106 % of control | [3] 102 % of control

c1ccc2c(c1)c1c(n2N2CCCCC2)CCC1
inactive: dose: 100.0 mg/kg/injection, schedule: Q04DX002 (ip), vehicle: saline with Tween-80 90 % of control | dose: 200.0 mg/kg/injection, schedule: Q04DX002 (ip), vehicle: saline with Tween-80 95 % of control

O=C(CCCl)c1ccccc1
inactive: [4] 97 % of control | [5] 94 % of control

Nc1nc(N)c(N=Nc2c(Br)cc(S(N)(=O)=O)cc2Br)c(N)n1
inactive: dose: 100.0 mg/kg/injection, schedule: Q01DX001 (ip), vehicle: carboxymethylcellulose (CMC) 94 % of control | dose: 200.0 mg/kg/injection, schedule: Q01DX001 (ip), vehicle: carboxymethylcellulose (CMC) 94 % of control | dose: 400.0 mg/kg/injection, schedule: Q01DX001 (ip), vehicle: carboxymethylcellulose (CMC) 100 % of control

O=C(O)CCCN1C/C(=C\c2ccc(Cl)cc2)C(=O)C1=O
inactive: [6] 97 % of control | [7] 98 % of control | [8] 102 % of control | [9] 98 % of control | [10] 107 % of control | dose: 400.0 mg/kg/injection, schedule: Q04DX003 (ip), vehicle: saline 96 % of control

O=C(c1ccccc1)C(c1ccccc1)C(O)(C(F)(F)F)C(F)(F)F (centres undefined)
inactive: [11] 103 % of control | [12] 97 % of control

Clc1ccc(P(c2ccc(Cl)cc2)c2ccc(Cl)cc2)cc1
inactive: [11] 87 % of control | [13] 98 % of control | [14] 95 % of control | [15] 97 % of control

O=C1OC(c2ccccc2)=C/C1=C/c1ccccc1O
inactive: [16] 95 % of control | [11] 101 % of control | [12] 96 % of control

Cc1c2c(nn1Cc1ccccc1)C(=O)C=C(Nc1ccccc1)C2=O
inactive: [17] 99 % of control | [18] 99 % of control and 104 % of control | [19] 97 % of control and 111 % of control

Nc1c(C(=O)O)cccc1C(=O)O
inactive: [11] 98 % of control | [13] 110 % of control | [12] 107 % of control | [14] 108 % of control | dose: 400.0 mg/kg/injection, schedule: Q01DX009 (ip), vehicle: saline with Tween-80 107 % of control | [15] 96 % of control

O=C(Nc1ccc(Cl)cc1Cl)Sc1ccc(Cl)cc1
inactive: [1] 91 % of control | [2] 96 % of control | [3] 88 % of control

COc1ccc2c(c1)NP(=S)(c1ccccc1)N2 (centres undefined)
inactive: dose: 50.0 mg/kg/injection, schedule: Q01DX001 (ip), vehicle: gum acacia 101 % of control | dose: 100.0 mg/kg/injection, schedule: Q01DX001 (ip), vehicle: gum acacia 91 % of control | dose: 100.0 mg/kg/injection, schedule: Q01DX009 (ip), vehicle: gum acacia 91 % of control | dose: 200.0 mg/kg/injection, schedule: Q01DX001 (ip), vehicle: gum acacia 100 % of control | dose: 200.0 mg/kg/injection, schedule: Q01DX009 (ip), vehicle: gum acacia 91 % of control | dose: 400.0 mg/kg/injection, schedule: Q01DX009 (ip), vehicle: gum acacia 91 % of control

CC(=O)N(C)c1cccc(C(=O)O)c1
inactive: [13] 98 % of control | [14] 94 % of control | [15] 98 % of control

O=C1c2ccccc2C(=O)C1(Br)C(Br)c1ccccc1 (centres undefined)
inactive: [1] 102 % of control | dose: 100.0 mg/kg/injection, schedule: Q04DX003 (ip), vehicle: Klucel (hydroxypropylcellulose) (HPC) 96 % of control | [2] 101 % of control | dose: 200.0 mg/kg/injection, schedule: Q04DX003 (ip), vehicle: Klucel (hydroxypropylcellulose) (HPC) 94 % of control | [3] 93 % of control | dose: 400.0 mg/kg/injection, schedule: Q04DX003 (ip), vehicle: Klucel (hydroxypropylcellulose) (HPC) 96 % of control

Cc1ccc(S(=O)(=O)CCN2CCN(C)CC2)cc1
inactive: [6] 100 % of control | [8] 94 % of control

COc1c(OC)c(C(C)C)c2c(OC(C)=O)c(C)c(-c3c(C)c(OC(C)=O)c4c(C(C)C)c(OC)c(OC)c5c4c3OC5=O)c3c2c1C(=O)O3
inactive: [17] 100 % of control | [18] 93 % of control | [19] 98 % of control

CC[N+](CC)(CC)CCC[N+](CC)(CC)CC
inactive: dose: 30.0 mg/kg/injection, schedule: Q01DX009 (ip), vehicle: water 98 % of control | dose: 50.0 mg/kg/injection, schedule: Q01DX009 (ip), vehicle: water 95 % of control and 96 % of control | dose: 80.0 mg/kg/injection, schedule: Q01DX009 (ip), vehicle: water 98 % of control | dose: 100.0 mg/kg/injection, schedule: Q04DX003 (ip), vehicle: water 103 % of control | dose: 200.0 mg/kg/injection, schedule: Q04DX003 (ip), vehicle: water 99 % of control

CN(CS(=O)(=O)O)c1cc(F)cc(F)c1
inactive: dose: 50.0 mg/kg/injection, schedule: Q01DX001 (ip), vehicle: saline 102 % of control | [6] 102 % of control | [8] 98 % of control | [10] 98 % of control

O=P1(O)[O][Sn]([c]2ccccc2)([c]2ccccc2)[O]1
inactive: dose: 6.25 mg/kg/injection, schedule: Q01DX009 (ip), vehicle: saline with Tween-80 97 % of control | dose: 12.5 mg/kg/injection, schedule: Q01DX009 (ip), vehicle: saline with Tween-80 97 % of control

CC(=O)c1cc(N)ccc1SC#N
inactive: dose: 5.0 mg/kg/injection, schedule: Q01DX009 (ip), vehicle: saline with Tween-80 102 % of control | dose: 5.0 mg/kg/injection, schedule: Q04DX003 (ip), vehicle: saline with Tween-80 101 % of control | dose: 10.0 mg/kg/injection, schedule: Q01DX009 (ip), vehicle: saline with Tween-80 96 % of control | dose: 10.0 mg/kg/injection, schedule: Q04DX003 (ip), vehicle: saline with Tween-80 101 % of control | dose: 20.0 mg/kg/injection, schedule: Q01DX009 (ip), vehicle: saline with Tween-80 100 % of control | dose: 20.0 mg/kg/injection, schedule: Q04DX003 (ip), vehicle: saline with Tween-80 103 % of control

O=C(O)COc1ccc(F)cn1
inactive: [4] 101 % of control | [5] 93 % of control | dose: 400.0 mg/kg/injection, schedule: Q04DX002 (ip), vehicle: Klucel (hydroxypropylcellulose) (HPC) 114 % of control

O=C(/C=C/c1ccc2c(c1)OCO2)c1ccc(Cl)cc1
inactive: [16] 97 % of control | [11] 95 % of control | [12] 96 % of control

CN(C)C(=O)Sc1c(Cl)cc(S(=O)(=O)F)cc1Cl
inactive: [2] 105 % of control

O=C1NC(=O)C([n+]2ccccc2)=C1[O-]
inactive: dose: 25.0 mg/kg/injection, schedule: Q04DX003 (ip), vehicle: saline 110 % of control | dose: 50.0 mg/kg/injection, schedule: Q04DX003 (ip), vehicle: saline 110 % of control | [7] 94 % of control and 100 % of control | [9] 96 % of control

— PubChem BioAssay AID248 (DTP/NCI, 2004)
